Ends that are not written are not given here.
System: KV3.4 currents
Test: Whole-cell patch clamp of KV3.4 currents in NGF-differentiated PC-12 cells, control or exposed to Aβ1−42
Type: cell-based, Rat
Settings: peak of +40 mV pulse, 6 to 10 cells, 3 sessions; for effect on KV3.4 activity in NGF-differentiated PC-12 cells: 100 nM, control condition (no Aβ1−42); for effect on KV3.4 upregulation elicited by Aβ1−42 exposure: peptide 100 nM, 30 min pre-treatment, Aβ1−42 oligomers 5 μM for 24 h
Description: Rat pheochromocytoma cells (PC-12 cells) were grown as previously described (Pannaccione et al., [2005], [2007]). For all the experiments, cells were seeded at low density on glass cover-slips coated with poly-L-lysine (50 μg/ml). Differentiation of PC-12 cells was achieved by treatment with neuronal growth factor (NGF) 2.5 S (50 ng/ml) for 7–9 days (Greene and Tischler, [1976]). For electrophysiological experiments, cells were seeded on glass cover-slips and used after 7–9 days of NGF.
Currents from CHO cells were recorded at room temperature 1-2 days after transfection. The extracellular solution contained the following (in mM): 138 NaCl, 5.4 KCl, 2 CaCl2, 1 MgCl2, 10 glucose and 10 HEPES, adjusted pH 7.4 with NaOH. The pipette solution contained (in mM) the following: 140 KCl, 2 MgCl2, 10 EGTA, 10 HEPES, 5 Mg-ATP, adjusted pH 7.4 with KOH (Miceli et al., [2015]). KV3.4 currents were measured by applying voltage steps from −100 mV to +60 mV from a holding potential of −80 mV (Abbott et al., [2001]). Moreover, the total outward K^+ currents were recorded in NGF-differentiated PC-12 cells using the extracellular solution contained the following (in mM): 150 NaCl, 5.4 KCl, 3 CaCl2, 1 MgCl2, 10 HEPES, adjusted pH 7.4 with NaOH. The pipette solution contained the following (in mM): 140 KCl, 2 MgCl2, 10 HEPES, 10 glucose, 10 EGTA, and 1 Mg-ATP adjusted at pH 7.4 with KOH (Diochot et al., [1998]). All experiments were performed in the presence of 50 nM tetrodotoxin (TTX) and 10 μ M nimodipine in the extracellular solution. To discriminate K^+ current components appropriate electrophysiological protocols were used (Pannaccione et al., [2007]). Steady-state activation and inactivation properties were measured by using appropriate protocols (Pannaccione et al., [2005]). […] The capacitance of the membrane was calculated according to the following equation: Cm = τc·Io/ΔEm (1-I∞/Io), where Cm is membrane capacitance, τc is the time constant of the membrane capacitance, Io is the maximum capacitance current value, ΔEm is the amplitude of the voltage step, and I∞ is the amplitude of the steady-state current. K^+ currents were recorded by patch-clamp technique in CHO and NGF-differentiated PC-12 cells using a commercially available amplifier (Axopatch 200B, Molecular Devices) and Digidata 1322A interface (Molecular Devices, USA). […] Data were acquired and analyzed using the pClamp software (version 9, Molecular Devices). […]
The peptide used in our study was synthesized by INBIOS (Pozzuoli, Naples, Italy) using the Aβ1−42 sequence of human APP [UniProtKB-P05067 (A4_HUMAN)]. The purity of the peptide was assessed by high-performance liquid chromatography (>95% pure) and the amino acid composition was verified by mass spectrometry. […]

Substance	effect on KV3.4 activity in NGF-differentiated PC-12 cells	effect on KV3.4 upregulation elicited by Aβ1−42 exposure
AAPAFASG [BDS-I[1-8]]	blocked KV3.4 activity	prevented
H-GSAFAPAA-OH [BDS-I[1-8scr]]	did not exert any effect	did not counteract
